“Also recorded” adds a separate entry of the source.
Legend:
[1] = tested on: special operations veterans with combat and/or blast exposure; assay: Safety monitoring during and after treatment (adverse events, QTc by ECG); type: in vivo, human
Protocol: With subjects in the fasting state, an intravenous infusion of 1 gram of magnesium sulfate was administered 1-2 hours prior to treatment. […] Medical staff (MD, RN, or EMT) were onsite at a ratio of at least 1 staff per 2 patients throughout treatment for monitoring and management, but no specific coaching or psychological support was provided during treatment.

[2] = tested on: special operations veterans with combat and/or blast exposure; assay: Structural MRI (T1w, FreeSurfer): brain volume and cortical thickness; type: in vivo, human
Protocol: Structural imaging of the brain was also conducted on some of the subjects of Example 1. Gray matter constitutes about 40% of the brain and white matter constitutes about 60% of the brain. Gray matter contains most of the brain's neuronal cell nodes, it is fully developed once a person reaches their 20's and interprets sensor information from various parts of the body. White matter is made up of bundles which connect various gray matter areas, it develops throughout the 20's and peaks in middle age. Typical metrics analyzed in anatomical (T1-weighted, “T1w”) imaging include volume and/or shape of nuclei (e.g. caudate), volume and/or shape of ventricles of the brain, and cortical thickness (mm). These metrics can be used to study normal and abnormal neuroanatomy and are primarily used to quantify gray matter. A tool called FreeSurfer was applied to images for a T1w structural analysis (volume, cortical thickness) to adjust for bias, remove non-brain matter, segments by tissue, parcels the brain into standardized regions, and provides measurements of those regions. FreeSurfer measurements of whole brain volume, volume by tissue (gray, white, CSF), estimated intracranial volume (ICV), subcortical gray matter volume, cortical volume by region were done. […] In particular, analysis was done to determine if there was any loss in gray matter volume or cortical thickness, whether there was a loss in white matter volume or an increase in presence of white matter […]. Results are summarized in Table 3 and shown in FIGS. 17A-17B, and FIGS. 18A-18B.
The fMRI images were also inspected to determine the difference in volume in regional areas of the brain from baseline to one month after treatment. FIG. 18A is a bar graph showing the effect size of a change in volume in 47 brain regions indicated along the x-axis. […] The fMRI images were also inspected for whole brain thickness at baseline and one month after treatment. […] FIG. 18B is a bar graph showing the effect size of a cortical thickness change for the brain regions indicated along the x-axis, from baseline to one month after treatment. […] The right and left parahippocampal gyrus are involved in visuospatial processing, including scene perception, navigation, and emotional contextualization. The left orbitofrontal gyrus is involved in impulse control and reward valuation. The left insular cortex is associated with both the affective-perceptual and cognitive-evaluative forms of empathy, as well as awareness of hunger, pain and fatigue. The left entorhinal cortex is a widespread network hub for memory, navigation, and perception of time.

[3] = baseline to one month after treatment

SMILES: CCC1CC2CC3c4[nH]c5ccc(OC)cc5c4CCN(C2)C13 (stereo not shown) [ibogaine, Ibogaine]
- participants with transient cerebellar signs such as mild ataxia and intention tremor ([1]; 30 participants): All participants
- unexpected or serious treatment-emergent side effects / adverse events ([1]; 30 participants, oral ibogaine with IV magnesium sulfate): no unexpected or serious treatment-emergent side effects; also recorded: no unexpected or serious adverse events
- prolongation of QTc ([1]; continuous 5-lead ECG for 12-16 hours following administration): no instances of a concerning prolongation of QTc
- time to resolution of transient cerebellar signs ([1]; human, in vivo, oral): ≤ 24 h
- participants treated for insomnia ([1]; while experiencing the oneirogenic effects, 1 participant): 3%
- participants treated for hypertension ([1]; while experiencing the oneirogenic effects, 2 participants): 7%
- participants treated for anxiety ([1]; while experiencing the oneirogenic effects, 3 participants): 10%
- participants treated for nausea ([1]; while experiencing the oneirogenic effects, 7 participants): 23%
- participants treated for headache ([1]; while experiencing the oneirogenic effects, 12 participants): 40%
- regional volume change in cerebral white matter (left) and left ventral DC [2, 3]: Increases in volume
- regional volume change in posterior corpus callosum and left choroid plexus [2, 3]: Decreases in volume
- White matter hypointensities (corrected for cerebral white matter), change ([2]; baseline vs one month post treatment, 17 subjects, two-tailed p = 0.0789): Two-tailed: no significant differences
- Subcortical Gray Matter volume, change ([2]; baseline vs one month post treatment, 17 subjects, two-tailed p = 0.0949): Two-tailed: no significant differences
- Total Gray Matter volume, change ([2]; baseline vs one month post treatment, 17 subjects, two-tailed p = 0.4755): Two-tailed: no significant differences
- Cortical Gray Matter volume, change ([2]; baseline vs one month post treatment, 17 subjects, two-tailed p = 0.4847): Two-tailed: no significant differences
- damage to the brain by inspection of brain volume and thickness ([2]; one month after treatment): no apparent damage to the brain
- right hemisphere mean cortical thickness, change ([2]; one month after treatment vs baseline): no significant difference
- Left hemisphere mean cortical thickness, change ([2]; one month after treatment vs baseline, two-tailed p=0.7146): no significant difference
- cortical thickness change in left entorhinal cortex, left-lateral-orbitofrontal pole, parahippocampal gyrus (bilaterally), left insular cortex, right-pars triangularis ([2]; one-month after treatment): Increases in cortical thickness
